Tests used:
[1] = Particle diameter measurement of milled product (HELOS&RODOS dry powder particle size analyzer); format: physicochemical; conditions: evaluated by using FIG. 3
Procedure: The particle diameter of the milled olmesartan medoxomil obtained in Example (1) was measured under the following conditions. Apparatus: HELOS&RODOS dry powder particle size analyzer Lens: R3 Dispersive pressure: 1.5 bar Trigger condition: 2s-1000ms-k15-0.5% Feeder: VIBRI (feeding: 70%)

[2] = Measurement of dissolution ratio of pulverized olmesartan medoxomil (JP Dissolution Test Method 2, Paddle Method); format: physicochemical; conditions: calculated from regression equation in FIG. 1, 30 minutes, JP-2, 200 paddle rpm
Procedure: According to the Method 2 of the Dissolution Test (Paddle Method) described in the 14th Revised Edition of the Japanese Pharmacopoeia, at 200 paddle revolutions per-minute using 900 mL of Japanese Pharmacopoeia Solution 2 (JP-2) for the test solution, 20 mg of milled olmesartan medoxomil prepared per 1 Bessel was added. The test solution was sampled at 30 minutes after the start of the testing, the sampled test solution was filtered through a membrane filter having a pore diameter of 0.45 μm, and the dissolution ratio of olmesartan medoximil was measured by spectrophotometer. Calculation of the dissolution ratio was conducted based on “absorbance of filtrate at 257 nm-absorbance of filtrate at 338 nm”.

particle diameter at 99% cumulative volume ([1]; required for a medicament which elutes 60% or more): ≤ 156 μm
particle diameter at 99% cumulative volume ([1]; required for a medicament which elutes 65% or more): ≤ 137 μm
particle diameter at 99% cumulative volume ([1]; required for a medicament which elutes 70% or more): ≤ 119 μm
dissolution ratio of the drug substance ([2]; desired dissolution ratio of the medicament (20 mg tablet) set to 60%): 42.93%
dissolution ratio of the drug substance ([2]; desired dissolution ratio of the medicament (20 mg tablet) set to 65%): 50.56%
dissolution ratio of the drug substance ([2]; desired dissolution ratio of the medicament (20 mg tablet) set to 70%): 58.18%
Compound: CCCc1nc(C(C)(C)O)c(C(=O)OCc2oc(=O)oc2C)n1Cc1ccc(-c2ccccc2-c2nnn[nH]2)cc1 [olmesartan medoxomil, (5-methyl-2-oxo-1,3-dioxolen-4-yl)methyl 4-(1-hydroxy-1-methylethyl)-2-propyl-1-[2′-(1H-tetrazol-5-yl)biphenyl-4-ylmethyl]imidazole-5-carboxylate]
